Measured values as given in patent US8110675B2, “TP expression-inhibiting compound and siRNA sequence thereof” (Chang Gung University, priority 2009, dated 2012).

Tested on: NPC-TW02 and NPC-TW02/TP cells
Assay: cytotoxicity assay with 5′-DFUR, apoptosis by annexin V flow cytometry
Assay type: cell-based
Conditions: TP over-expression, 72 hours
Procedure: Refer to FIG. 1A and FIG. 1B. A cell line of nasopharyngeal cancer NPC-TW02/TP is established to stably express exogenous TP. First, the TP-expression carrier pcDNA3.1-PT is transfected to the cell line. Next, the cell line is screened and then cultivated in a culture solution having 500 μg/ml G418. Next is performed a cytotoxicity assay, wherein NPC-TW02 and NPC-TW02/TP are respectively processed with 5′-DFUR (Sigma-Aldrich, St. Louis, Mo., USA). Next, the cell lines are further cultivated for 72 hours. Next, the cell membranes are everted to expose phosphatidylserine. Then, phosphatidylserine is analyzed with the Vybrant® Apoptosis Assay Kit #2 (a product of Invitrogen).
Firstly, 2×10^5 cells are taken out and washed with PBS. Next, a buffer solution (10 mM HEPES, 140 mM NaCl, 2.5 mM CaCl2, pH 7.4) is used to adjust the solution to have a cell concentration of 2×10^6/mL. Next, 5 μl Alexa Fluor® 488 annexin V is added into 100 μl cell suspension, and then the cell suspension reacts at an ambient temperature for 15 minutes. Next, the cell specimens (10000 events) are analyzed with a flow cytometer (a product of Becton Dickinson), as shown in FIG. 3. […] Then, phosphatidylserine is analyzed with the Vybrant® Apoptosis Assay Kit #2 (a product of Invitrogen).

With C[C@H]1O[C@@H](n2cc(F)c(=O)[nH]c2=O)[C@H](O)[C@@H]1O [5′-DFUR, 5-fluoro-5′-deoxyuridine] the “sensitivity of TP over-expressing nasopharyngeal cancer cells / induction of apoptosis” value was “can induce the apoptosis of cancer cells”.
